According to patent publication US20250235510A1, “COMBINATION THERAPY USING GLUCOSE-DEPENDENT INSULINOTROPIC POLYPEPTIDE RECEPTOR ANTAGONIST COMPOUNDS AND GLP-1 RECEPTOR AGONIST PEPTIDES” (Pfizer Inc., priority 2024, published 2025):

Biological target: T1, human Glucose-dependent Insulinotropic Polypeptide Receptor (hGIPR) (Homo sapiens, UniProt P48546)
T1 sequence (P48546 22-466): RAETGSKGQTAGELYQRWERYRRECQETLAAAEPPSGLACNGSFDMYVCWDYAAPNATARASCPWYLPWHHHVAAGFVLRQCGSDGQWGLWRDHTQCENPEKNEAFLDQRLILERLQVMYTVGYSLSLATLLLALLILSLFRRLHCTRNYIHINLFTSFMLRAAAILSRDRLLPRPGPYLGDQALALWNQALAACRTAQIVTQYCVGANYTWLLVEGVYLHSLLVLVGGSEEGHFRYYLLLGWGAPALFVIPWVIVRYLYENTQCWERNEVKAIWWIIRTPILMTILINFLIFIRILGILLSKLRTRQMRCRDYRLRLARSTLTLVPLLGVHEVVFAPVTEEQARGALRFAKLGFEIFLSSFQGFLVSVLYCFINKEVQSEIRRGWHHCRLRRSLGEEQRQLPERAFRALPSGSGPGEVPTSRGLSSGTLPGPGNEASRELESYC
Experiment: Functional in vitro GIPR antagonist potency assay (intracellular cAMP, HTRF) in CHO-K1 cells stably expressing hGIPR
Type: cell-based
Details: 2 h compound incubation, then hGIP at estimated EC80 for 30 min
Method: The functional in vitro antagonist potency for test compounds was determined by monitoring intracellular cyclic adenosine monophosphate (cAMP) levels in Chinese hamster ovary (CHO)-K1 cells stably expressing the human Glucose-dependent Insulinotropic Polypeptide Receptor (hGIPR). Following agonist activation, hGIPR associates with the G-protein complex causing the Gas subunit to exchange bound guanosine diphosphate (GDP) for guanosine triphosphate (GTP), followed by dissociation of the Gas-GTP complex. The activated Gas subunit can couple to downstream effectors to regulate the levels of second messengers or cAMP within the cell. Thereby, determination of intracellular cAMP levels allows for pharmacological characterization. Intracellular cAMP levels are quantitated using a homogenous assay utilizing the Homogeneous Time Resolved Fluorescence (HTRF) technology from Perkin Elmer. […] The two entities compete for binding to a monoclonal anti-cAMP antibody labeled with cryptate. […]
([…]: 5% CO2), with a micro-clime lid. […] ([…]: 5% CO2), after which intracellular cAMP levels were quantified and samples measured as described previously. […]
Data were analyzed using the ratio of fluorescence intensity at 620 and 665 nm for each well, extrapolated from the cAMP standard curve to express data as nanomolar (nM) cAMP for each well. […]

| Compound | IC50 [nM] |
| --- | --- |
| CC(C)c1ccc(NC(=O)N2CCC[C@H]2C(=O)Nc2ccc3cc(C(=O)O)ccc3c2)cc1 [Compound 41A, 6-[(1-{[4-(propan-2-yl)phenyl]carbamoyl}prolyl)amino] naphthalene-2-carboxylic acid] | 160 |
| CC(C)c1ccc(NC(=O)N2CCC[C@H]2C(=O)Nc2ccc(-c3ccc(C(=O)O)cc3)cc2)cc1 [Compound 44A, 4′-[(1-{[4-(propan-2-yl)phenyl]carbamoyl}prolyl)amino][1,1′-biphenyl]-4-carboxylic acid] | 6.8 |
